In US20250059159A1, “PLPRO INHIBITORS” (SHANGHAI SYNERGY PHARMACEUTICAL SCIENCES CO., LTD., priority 2021, published 2025):

Experiments:
[1] = test system: SARS-CoV2 (Omicron); assay: SARS-CoV2 antiviral cellular activity assay in A549:hACE2 cells; format: cell-based; settings: Severe acute respiratory syndrome coronavirus 2, 48 h; read-out: Antiviral cellular EC50 range (Omicron)
[2] = biological target: SARS-CoV-2 PLpro (Severe acute respiratory syndrome coronavirus 2 (2019-nCoV) (SARS-CoV-2), UniProt P0DTD1); assay: PLpro enzymatic inhibition assay (IC50 value determination); format: biochemical; settings: 60 min preincubation for covalent inhibitors, 10 min for non-covalent, read-out: Inhibition of SARS-CoV-2 PLpro IC50 range

| SMILES | EC50 [1] | IC50 [2] |
| --- | --- | --- |
| COC(=O)/C=C/CNC(=O)CNC(=O)CN(C1CCN([C@H](C)c2cccc3ccccc23)CC1)S(C)(=O)=O [Compound 20, methyl (R,E)-4-(2-(2-(N-(1-(1-(naphthalen-1-yl)ethyl)piperidin-4-yl)methylsulfonamido)acetamido)acetamido)but-2-enoate] | < 100 nM | < 100 nM |
| C#CCNC(=O)CNC(=O)CN(C1CCN([C@H](C)c2cccc3ccccc23)CC1)S(C)(=O)=O [Compound 21, (R)-2-(N-(1-(1-(naphthalen-1-yl)ethyl)piperidin-4-yl)methylsulfonamido)-N-(2-oxo-2-(prop-2-yn-1-ylamino)ethyl)acetamide] | < 100 nM | < 100 nM |
| C#CCNC(=O)CNC(=O)CN(C1CCN([C@H](C)c2cccc3ccccc23)CC1)S(=O)(=O)C1CC1 [Compound 60, (R)-2-(N-(1-(1-(naphthalen-1-yl)ethyl)piperidin-4-yl)cyclopropanesulfonamido)-N-(2-oxo-2-(prop-2-yn-1-ylamino)ethyl)acetamide] | < 100 nM | < 100 nM |
| C#CCNC(=O)CNC(=O)CN(C1CCN([C@H](C)c2cccc3ccccc23)CC1)S(=O)(=O)c1ccccc1 [Compound 63, (R)-2-(N-(1-(1-(naphthalen-1-yl)ethyl)piperidin-4-yl)phenylsulfonamido)-N-(2-oxo-2-(prop-2-yn-1-ylamino)ethyl)acetamide] | < 100 nM | < 100 nM |
| C#CCNC(=O)CNC(=O)CN(C1CCN([C@H](C)c2cccc3ccccc23)CC1)S(=O)(=O)N1CCCC1 [Compound 65, (R)-2-(N-(1-(1-(naphthalen-1-yl)ethyl)piperidin-4-yl)pyrrolidine-1-sulfonamido)-N-(2-oxo-2-(prop-2-yn-1-ylamino)ethyl)acetamide] | < 100 nM | < 100 nM |
| C#CCNC(=O)CNC(=O)CN(CCC(C)=O)C1CCN([C@H](C)c2cccc3ccccc23)CC1 [Compound 79, (R)-2-((1-(1-(naphthalen-1-yl)ethyl)piperidin-4-yl)(3-oxobutyl)amino)-N-(2-oxo-2-(prop-2-yn-1-ylamino)ethyl)acetamide] | 100 to 1000 nM | < 100 nM |
| C#CCNC(=O)CNC(=O)CN(C1CCN([C@H](C)c2cccc3ccccc23)CC1)S(=O)(=O)C(F)(F)F [Compound 80, (R)—N-(2-oxo-2-(prop-2-yn-1-ylamino)ethyl)-2-((1,1,1-trifluoro-N-(1-(1-(naphthalen-1-yl)ethyl)piperidin-4-yl)methyl)sulfonamido)acetamide] | 100 to 1000 nM | < 100 nM |
| C#CCNC(=O)CNC(=O)CN(C1CCN(C(C)c2ccc(F)c3ccccc23)CC1)S(C)(=O)=O (centres unmarked) [Compound 107] | 100 to 1000 nM | < 100 nM |
| C#CC(C)(C)CNC(=O)CNC(=O)CN(C1CCN(C(C)c2cccc3ccccc23)CC1)S(C)(=O)=O (centres unmarked) [Compound 156, N-(2,2-dimethylbut-3-yn-1-yl)-2-(2-(N-(1-(1-(naphthalen-1-yl)ethyl)piperidin-4-yl)methylsulfonamido)acetamido)acetamide] |  | 1000 to 10000 nM |
| C#CCCNC(=O)CNC(=O)CN(C1CCN(C(C)c2cccc3ccccc23)CC1)S(C)(=O)=O (centres unmarked) [Compound 157, N-(but-3-yn-1-yl)-2-(2-(N-(1-(1-(naphthalen-1-yl)ethyl)piperidin-4-yl)methylsulfonamido)acetamido)acetamide] |  | 100 to 1000 nM |
| CC(c1cccc2ccccc12)N1CCC(N(CC(=O)NCC(=O)NC/C=C/C(N)=O)S(C)(=O)=O)CC1 (centres unmarked) [Compound 159, (E)-4-(2-(2-(N-(1-(1-(naphthalen-1-yl)ethyl)piperidin-4-yl)methylsulfonamido)acetamido)acetamido)but-2-enamide] |  | 100 to 1000 nM |
| COC(=O)/C(C#N)=C/CNC(=O)CNC(=O)CN(C1CCN(C(C)c2cccc3ccccc23)CC1)S(C)(=O)=O (centres unmarked) [Compound 162, methyl (E)-2-cyano-4-(2-(2-(N-(1-(1-(naphthalen-1-yl)ethyl)piperidin-4-yl)methylsulfonamido)acetamido)acetamido)but-2-enoate] |  | 100 to 1000 nM |
| C#CCNC(=S)CNC(=O)CN(C1CCN(C(C)c2cccc3ccccc23)CC1)S(C)(=O)=O (centres unmarked) [Compound 164, 2-(N-(1-(1-(naphthalen-1-yl)ethyl)piperidin-4-yl)methylsulfonamido)-N-(2-(prop-2-yn-1-ylamino)-2-thioxoethyl)acetamide] |  | < 100 nM |
| C=CC(=O)NNC(=O)CN(C1CCN(C(C)c2cccc3ccccc23)CC1)S(C)(=O)=O (centres unmarked) [Compound 168, N-(2-(2-acryloylhydrazineyl)-2-oxoethyl)-N-(1-(1-(naphthalen-1-yl)ethyl)piperidin-4-yl)methanesulfonamide] |  | 1000 to 10000 nM |
| C#Cc1nnc(NC(=O)CN(C2CCN(C(C)c3cccc4ccccc34)CC2)S(C)(=O)=O)o1 (centres unmarked) [Compound 170, N-(5-ethynyl-1,3,4-oxadiazol-2-yl)-2-(N-(1-(1-(naphthalen-1-yl)ethyl)piperidin-4-yl)methylsulfonamido)acetamide] |  | 1000 to 10000 nM |
